Among the data in US9670213B2, “Pteridine ketone derivative and applications thereof as EGFR, BLK, and FLT3 inhibitor” (EAST CHINA UNIVERSITY OF SCIENCE AND TECHNOLOGY, priority 2012, dated 2017) are IC50 values, retold here.

The structures appear in SMILES notation.

For one experiment, the target named is FLT3 (Homo sapiens (Human), UniProt P36888). In words: FLT3 kinase activity assay (Caliper). In kind it is biochemical. Conditions: read-out: Inhibitory activity on kinase (IC50, nM) FLT3. The protocol: (§1) Preparation of 1× kinase matrix buffer and stop buffer.
FLT3, sequence (P36888 27-993): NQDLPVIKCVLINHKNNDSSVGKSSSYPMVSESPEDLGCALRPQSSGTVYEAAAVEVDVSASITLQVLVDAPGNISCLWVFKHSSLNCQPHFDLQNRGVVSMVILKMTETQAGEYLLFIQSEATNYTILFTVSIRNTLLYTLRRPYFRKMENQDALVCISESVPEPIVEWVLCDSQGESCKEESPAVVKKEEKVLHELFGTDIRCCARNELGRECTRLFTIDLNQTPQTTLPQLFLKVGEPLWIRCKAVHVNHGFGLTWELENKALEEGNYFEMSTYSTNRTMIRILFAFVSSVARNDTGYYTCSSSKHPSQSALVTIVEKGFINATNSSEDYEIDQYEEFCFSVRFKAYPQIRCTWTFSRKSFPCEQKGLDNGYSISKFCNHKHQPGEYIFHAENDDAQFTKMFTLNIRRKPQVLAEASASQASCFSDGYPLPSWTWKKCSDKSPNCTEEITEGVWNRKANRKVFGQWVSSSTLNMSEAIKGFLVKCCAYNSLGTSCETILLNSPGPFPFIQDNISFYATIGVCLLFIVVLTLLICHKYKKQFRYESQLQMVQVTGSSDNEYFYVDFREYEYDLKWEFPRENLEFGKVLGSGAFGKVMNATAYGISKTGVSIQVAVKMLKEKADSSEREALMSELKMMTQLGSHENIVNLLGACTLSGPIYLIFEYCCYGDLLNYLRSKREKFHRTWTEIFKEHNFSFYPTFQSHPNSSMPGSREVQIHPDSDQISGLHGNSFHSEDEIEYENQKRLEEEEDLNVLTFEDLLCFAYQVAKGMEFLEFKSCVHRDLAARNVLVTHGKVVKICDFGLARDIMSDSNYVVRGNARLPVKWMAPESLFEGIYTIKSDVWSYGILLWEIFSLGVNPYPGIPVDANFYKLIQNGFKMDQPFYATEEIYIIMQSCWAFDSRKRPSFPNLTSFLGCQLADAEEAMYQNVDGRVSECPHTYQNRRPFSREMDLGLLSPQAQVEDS
(§2) Preparation of compound solution. The compound was dissolved in 100% DMSO to a concentration, which was 50 times of the final highest inhibiting-concentration. 100 μL of the compound solution as said above was transferred into wells of 96-well plate. The above compound solution was sequentially diluted to the final desired concentration. In two blank wells of same 96-well plate, 100 μL of 100% DMSO was added as no-compound and no-kinase control, and this plate was used as the original plate.
(§3) Preparation of intermediate plate. 10 μL of compound solution was transferred from the original plate to another 96-well plate as the intermediate plate; 90 μL of 1× kinase buffer was added into each well of the intermediate plate, and the intermediate plate was shaken for 10 min.
(§4) Preparation of assay plate. 5 μL of solution from each well of intermediate plate was added into a 384-well plate, and repeated controls were set.
(§5) Kinase reaction. 2.5× kinase solution and 2.5× peptide solution were prepared. 2.5× kinase solution was transferred into assay plate. Assay plate comprised 5 μL of the compound solution in 10% DMSO. 10 μL of 2.5× kinase solution was added in each well of 384-well assay plate. […] 2.5× peptide solution was added into each well. After incubated at 28° C. for an appropriate time, 25 μL of stop buffer was added to quench the reaction. Experimental data were collected in Caliper. Curve was fitted.

Experiment [1] relates to SK-BR-3 (breast cancer cells, Her2 overexpression). In words: Cell proliferation and growth inhibition analysis. Conditions: Homo sapiens; SK-BR-3 cells, 72 hours; read-out: Inhibitory activity on cell proliferation (IC50, μM) SK-BR-3. The experiment is classed as cell-based. The protocol:
(§6) Cell proliferation and growth inhibition analysis: H1975 (non-small cell lung cancer cells, EGFR^L858/T790M), HCC827 (non-small cell lung cancer cells, EGFR^del E746-A750), A549 (non-small cell lung cancer cells, EGFR wild-type), BT474 (breast cancer cells, Her2 overexpression), SK-BR-3 (breast cancer cells, Her2 overexpression), MCF-7 (breast cancer cells, […]) cells were obtained from ATCC. Cell proliferation was evaluated by MTS assay. Cells were exposed to the process conditions for 72 hours, and the number of cells for each cell line used in the experiment was adjusted according to the absorbance value (absorbance value at 490 nm was 1.3-2.2). 6 concentration gradients (0.1 nM-10 μM) were set for the compounds to be tested, with six parallel controls for each concentration.

Experiment [2] relates to BT474 (breast cancer cells, Her2 overexpression). In words: Cell proliferation and growth inhibition analysis. The experiment is classed as cell-based. The note with it: Homo sapiens, BT-474, 72 hours, read-out: Inhibitory activity on cell proliferation (IC50, μM) BT474. How it is done:
as §6

The subject of the next experiment is MCF-7. Nature of the experiment: Cell proliferation and growth inhibition analysis. The experiment is classed as cell-based. The note with it: Homo sapiens, MCF7; MCF-7 cells, 72 hours; read-out: Inhibitory activity on cell proliferation (IC50, μM) MCF-7. How it is done: as §6
Experiment [3] concerns A549 (non-small cell lung cancer cells, EGFR wild-type). Nature of the experiment: Cell proliferation and growth inhibition analysis. The experiment is classed as cell-based. The note with it: Homo sapiens, 72 hours, read-out: Inhibitory activity on cell proliferation (IC50, μM) A549. How it is done: as §6
In the next experiment the target is BLK (Homo sapiens (Human), UniProt P51451). In words: BLK kinase activity assay (Caliper). The experiment is classed as biochemical. Conditions: read-out: Inhibitory activity on kinase (IC50, nM) BLK. How it is done: as §1, §2, §3, §4, §5
BLK, sequence (P51451 whole entry): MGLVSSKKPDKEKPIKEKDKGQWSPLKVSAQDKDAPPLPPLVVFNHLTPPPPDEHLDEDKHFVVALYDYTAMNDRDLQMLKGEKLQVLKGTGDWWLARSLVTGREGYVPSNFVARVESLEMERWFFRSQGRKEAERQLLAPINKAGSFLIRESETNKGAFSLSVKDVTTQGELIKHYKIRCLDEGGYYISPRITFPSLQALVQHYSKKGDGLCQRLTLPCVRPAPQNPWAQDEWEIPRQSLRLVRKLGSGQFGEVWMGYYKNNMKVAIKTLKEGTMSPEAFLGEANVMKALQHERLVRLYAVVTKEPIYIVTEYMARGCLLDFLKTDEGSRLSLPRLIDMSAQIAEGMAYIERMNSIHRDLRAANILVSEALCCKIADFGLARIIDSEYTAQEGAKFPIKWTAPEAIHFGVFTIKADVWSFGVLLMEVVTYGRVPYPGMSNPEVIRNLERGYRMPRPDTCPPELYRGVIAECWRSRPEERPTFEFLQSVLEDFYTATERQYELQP
A further experiment concerns the target EGFR-T790M (Homo sapiens (Human), UniProt P00533, T790M). In words: In vitro EGFR kinase activity assay (Z'-Lyte). The note with it: read-out: Inhibitory activity on EGFR kinase (IC50, nM) T790M.
In experiment [4] the test system is HCC827 (non-small cell lung cancer cells, EGFR del E746-A750). In words: Cell proliferation and growth inhibition analysis. In kind it is cell-based. Conditions: Homo sapiens, 72 hours, read-out: Inhibitory activity on cell proliferation (IC50, μM) HCC827. The protocol:
(§7) Cell proliferation was evaluated by MTS assay. Cells were exposed to the process conditions for 72 hours, and the number of cells for each cell line used in the experiment was adjusted according to the absorbance value (absorbance value at 490 nm was 1.3-2.2). 6 concentration gradients (0.1 nM-10 μM) were set for the compounds to be tested, with six parallel controls for each concentration.
(§8) H1975, HCC827, A549, BT474, MCF-7, SK-BR-3 cells were cultured in the corresponding medium. Upon recovery, the cells were passaged at least two times and then used in experiments. Cells in Log phase were trypsinized and resuspended in the medium. H1975 (1000 cells per well), BT474 (1500 cells per well), MCF-7 (1500 cells per well), HCC827 (2000 cells per well), SK-BR-3 (2000 cells per well), A549 (2000 cells per well) were seeded into 96-well plates, the volume was 100 μL, and 6 rows and 7 columns were set. The plate was placed in an incubator at 37° C. of 5% carbon dioxide overnight. Compounds were dissolved in DMSO to obtain the concentration of […], and then gradually diluted to obtain the concentration of compound as […], 0.1 μM, 0.01 μM, 0.001 μM, 0.0001 μM. 2 μL of compound solution was added into 998 μL of medium, and the resulting mixture was thoroughly mixed. 100 μL of mixture was added into 96-well plate. […] After the cells were cultured for 68 hours, 20 μL of MTT (5 mg/mL) was added. After 4 hours, the supernatant was discarded and 150 μL of DMSO was added. The resulting system was shaken for 10 minutes, and the plate was read with Synergy HT (Bio TeK) (OD490). The data was calculated by GraphPad Prism version 4.0, and IC50 was obtained by non-linear regression model using dose-response curve.

The test system of experiment [5] is H1975 (non-small cell lung cancer cells, EGFR L858R/T790M). Nature of the experiment: Cell proliferation and growth inhibition analysis. The experiment is classed as cell-based. The note with it: Homo sapiens, NCI-H1975, 72 hours, read-out: Inhibitory activity on cell proliferation (IC50, μM) H1975. The protocol: as §7, §8
A further experiment addresses EGFR-L858R/T790M (Homo sapiens (Human), UniProt P00533, L858R/T790M). In words: In vitro EGFR kinase activity assay (Z'-Lyte). Conditions: read-out: Inhibitory activity on EGFR kinase (IC50, nM) T790M/L858R. In kind it is biochemical.
The target of a further experiment is wild-type EGFR (Homo sapiens (Human), UniProt P00533). Nature of the experiment: In vitro EGFR kinase activity assay (Z'-Lyte). In kind it is biochemical. Conditions: EGFR WT; read-out: Inhibitory activity on EGFR kinase (IC50, nM) WT.
The target in a further experiment is EGFR-L858R (Homo sapiens (Human), UniProt P00533, L858R). Nature of the experiment: In vitro EGFR kinase activity assay (Z'-Lyte). The experiment is classed as biochemical. The note with it: read-out: Inhibitory activity on EGFR kinase (IC50, nM) L858R.
EGFR-L858R, sequence (P00533 25-1210 L858R): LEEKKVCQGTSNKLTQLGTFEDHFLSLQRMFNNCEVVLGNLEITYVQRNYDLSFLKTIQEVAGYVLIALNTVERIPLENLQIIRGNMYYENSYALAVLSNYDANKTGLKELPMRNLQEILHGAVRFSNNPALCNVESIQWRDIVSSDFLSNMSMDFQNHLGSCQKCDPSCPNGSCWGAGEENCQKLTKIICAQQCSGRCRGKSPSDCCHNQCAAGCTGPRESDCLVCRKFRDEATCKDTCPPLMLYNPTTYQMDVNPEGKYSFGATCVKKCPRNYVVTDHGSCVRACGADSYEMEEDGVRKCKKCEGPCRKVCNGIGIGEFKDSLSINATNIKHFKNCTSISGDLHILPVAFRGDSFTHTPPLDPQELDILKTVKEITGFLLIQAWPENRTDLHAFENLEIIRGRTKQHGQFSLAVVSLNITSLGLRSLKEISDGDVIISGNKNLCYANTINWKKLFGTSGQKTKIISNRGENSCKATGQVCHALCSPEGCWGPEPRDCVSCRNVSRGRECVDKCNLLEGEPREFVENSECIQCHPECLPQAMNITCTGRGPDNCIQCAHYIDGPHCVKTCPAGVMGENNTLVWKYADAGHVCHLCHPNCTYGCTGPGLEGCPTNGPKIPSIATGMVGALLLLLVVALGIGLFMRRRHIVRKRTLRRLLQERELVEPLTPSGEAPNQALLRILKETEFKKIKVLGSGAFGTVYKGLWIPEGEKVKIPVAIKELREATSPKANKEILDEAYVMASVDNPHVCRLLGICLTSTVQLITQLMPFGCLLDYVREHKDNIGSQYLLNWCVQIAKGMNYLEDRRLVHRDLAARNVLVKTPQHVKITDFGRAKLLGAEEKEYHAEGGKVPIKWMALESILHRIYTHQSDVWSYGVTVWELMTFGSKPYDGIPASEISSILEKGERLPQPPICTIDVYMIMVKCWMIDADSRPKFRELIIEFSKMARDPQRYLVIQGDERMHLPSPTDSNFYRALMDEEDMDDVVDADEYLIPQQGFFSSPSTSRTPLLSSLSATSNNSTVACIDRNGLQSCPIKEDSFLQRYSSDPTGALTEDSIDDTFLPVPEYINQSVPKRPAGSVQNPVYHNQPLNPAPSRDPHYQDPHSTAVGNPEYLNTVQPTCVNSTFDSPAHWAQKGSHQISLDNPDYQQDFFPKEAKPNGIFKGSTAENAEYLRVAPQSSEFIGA
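For Inhibitory activity on EGFR kinase (IC50, nM) L858R in this document: Cell-free kinase reaction with peptide substrate and ATP, 1.5 h at room temperature, then development step cleaving non-phosphorylated peptide, 10-point dilution series 0.051–1000 nM, phosphopeptide as 100% phosphorylation control.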
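For Inhibitory activity on EGFR kinase (IC50, nM) T790M/L858R in this document: Cell-free kinase reaction with peptide substrate and ATP, 1.5 h at room temperature, development cleaving unphosphorylated peptide, 10-point dilution 0.051–1000 nM, phosphopeptide as 100% phosphorylation control.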
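For Inhibitory activity on EGFR kinase (IC50, nM) WT in this document: Ten-point dose series from 5.1×10^−11 to 1.0×10^−6 mol/L, kinase reaction 1.5 h at room temperature, then 1 h development cleaving unphosphorylated peptide, phosphopeptide as 100% phosphorylation control.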

EGFR-L858R/T790M, sequence (P00533 25-1210 T790M/L858R): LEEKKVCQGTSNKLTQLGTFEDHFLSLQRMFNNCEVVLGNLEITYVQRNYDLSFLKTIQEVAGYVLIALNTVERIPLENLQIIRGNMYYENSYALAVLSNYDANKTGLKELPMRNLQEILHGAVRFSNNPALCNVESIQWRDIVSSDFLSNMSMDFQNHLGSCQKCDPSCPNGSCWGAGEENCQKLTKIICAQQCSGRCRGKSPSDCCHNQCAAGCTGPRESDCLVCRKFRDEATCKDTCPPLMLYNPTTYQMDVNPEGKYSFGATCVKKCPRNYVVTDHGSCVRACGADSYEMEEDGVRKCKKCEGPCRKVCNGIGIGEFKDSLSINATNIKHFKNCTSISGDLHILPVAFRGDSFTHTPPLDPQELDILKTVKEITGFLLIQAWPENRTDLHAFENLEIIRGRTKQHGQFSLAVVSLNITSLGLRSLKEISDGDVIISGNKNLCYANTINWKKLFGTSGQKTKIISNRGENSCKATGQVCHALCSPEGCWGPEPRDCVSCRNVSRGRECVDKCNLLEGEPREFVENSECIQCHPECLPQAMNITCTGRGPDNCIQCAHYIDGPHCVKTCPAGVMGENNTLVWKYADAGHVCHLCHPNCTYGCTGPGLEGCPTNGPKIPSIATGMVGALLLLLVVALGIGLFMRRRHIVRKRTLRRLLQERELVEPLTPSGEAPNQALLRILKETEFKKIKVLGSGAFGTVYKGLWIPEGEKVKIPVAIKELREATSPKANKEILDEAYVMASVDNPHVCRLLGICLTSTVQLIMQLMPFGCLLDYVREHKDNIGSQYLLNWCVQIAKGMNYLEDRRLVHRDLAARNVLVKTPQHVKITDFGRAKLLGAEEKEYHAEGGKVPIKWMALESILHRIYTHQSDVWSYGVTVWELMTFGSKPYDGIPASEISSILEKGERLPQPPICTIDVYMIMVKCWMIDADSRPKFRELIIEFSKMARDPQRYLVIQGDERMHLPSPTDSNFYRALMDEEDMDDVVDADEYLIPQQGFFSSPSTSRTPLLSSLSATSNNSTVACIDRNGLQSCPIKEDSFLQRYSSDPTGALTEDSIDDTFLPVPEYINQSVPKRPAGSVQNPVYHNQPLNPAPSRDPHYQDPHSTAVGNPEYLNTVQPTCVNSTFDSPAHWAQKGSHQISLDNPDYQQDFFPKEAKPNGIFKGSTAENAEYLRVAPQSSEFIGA
EGFR-T790M, sequence (P00533 25-1210 T790M): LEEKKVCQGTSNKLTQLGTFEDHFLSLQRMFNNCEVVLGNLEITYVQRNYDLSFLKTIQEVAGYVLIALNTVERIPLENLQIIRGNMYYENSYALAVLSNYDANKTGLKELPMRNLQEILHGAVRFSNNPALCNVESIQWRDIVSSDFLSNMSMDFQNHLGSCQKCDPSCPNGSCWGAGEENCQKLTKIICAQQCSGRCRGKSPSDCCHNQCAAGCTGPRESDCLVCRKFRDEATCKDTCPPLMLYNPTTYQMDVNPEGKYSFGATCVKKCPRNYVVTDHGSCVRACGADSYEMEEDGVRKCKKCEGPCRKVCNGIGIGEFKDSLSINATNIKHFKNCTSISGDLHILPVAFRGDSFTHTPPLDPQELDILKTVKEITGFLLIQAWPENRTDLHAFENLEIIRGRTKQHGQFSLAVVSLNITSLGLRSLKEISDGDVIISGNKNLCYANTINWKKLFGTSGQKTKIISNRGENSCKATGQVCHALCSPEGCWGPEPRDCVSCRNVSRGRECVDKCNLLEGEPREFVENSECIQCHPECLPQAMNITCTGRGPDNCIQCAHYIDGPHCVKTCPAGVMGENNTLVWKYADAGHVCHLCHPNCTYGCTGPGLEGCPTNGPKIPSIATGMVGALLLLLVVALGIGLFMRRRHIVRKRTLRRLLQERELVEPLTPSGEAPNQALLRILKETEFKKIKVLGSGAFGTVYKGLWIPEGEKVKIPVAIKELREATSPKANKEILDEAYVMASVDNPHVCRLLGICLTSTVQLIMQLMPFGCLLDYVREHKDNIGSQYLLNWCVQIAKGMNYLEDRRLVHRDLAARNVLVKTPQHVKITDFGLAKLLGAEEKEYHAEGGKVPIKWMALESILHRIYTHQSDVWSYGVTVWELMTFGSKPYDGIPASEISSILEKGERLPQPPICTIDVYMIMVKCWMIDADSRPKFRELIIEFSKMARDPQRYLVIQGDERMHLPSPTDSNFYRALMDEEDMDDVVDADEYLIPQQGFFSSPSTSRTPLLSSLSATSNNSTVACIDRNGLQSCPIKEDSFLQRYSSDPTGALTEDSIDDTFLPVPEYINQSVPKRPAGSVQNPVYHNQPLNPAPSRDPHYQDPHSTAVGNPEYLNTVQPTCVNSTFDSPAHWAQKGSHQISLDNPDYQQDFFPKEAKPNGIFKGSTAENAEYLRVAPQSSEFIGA

`C=CC(=O)Nc1cccc(-n2c(=O)cnc3cnc(Nc4ccc(OC)cc4)nc32)c1` [Compound 006, N-(3-(2-(4-methoxyphenylamino)-7-oxo-8(7H)-pteridin-yl)phenyl) acrylamide]: the IC50 on FLT3 amounted to 1590 nM; in experiment [1], 2.35 µM; in experiment [2] it was 2.24 µM; in the experiment with MCF-7, 15 µM; in [3], 0.73 µM; at BLK it was 69 nM. For the same molecule, the IC50 at EGFR-T790M came out at 19.4 nM; in experiment [4] it was 0.009 µM; in experiment [5], 0.133 µM; at EGFR-L858R/T790M it was 8.4 nM; at wild-type EGFR, 10.6 nM; at EGFR-L858R it was 10.1 nM.

On to `COc1ccc(Nc2ncc3ncc(=O)n(-c4cccc(NC(=O)/C=C/CN(C)C)c4)c3n2)cc1` [Compound 010, 4-(dimethylamino)-N-(3-(2-(4-methoxyphenylamino)-7-oxo-8(7H)-pteridin-yl)phenyl)-2-buteneamide], for which the IC50 at FLT3 was 4390 nM; in [1], 7.17 µM; in experiment [2] it was 3.43 µM; with MCF-7, 3.6 µM; in experiment [3], more than 10 µM; on BLK it was 106 nM. Besides, the IC50 on EGFR-T790M is 2250 nM; in experiment [4], 4.16 µM; in experiment [5] it was more than 10 µM; on EGFR-L858R/T790M it was 2020 nM; at wild-type EGFR, 8090 nM; on EGFR-L858R it was 6080 nM.

In the case of `COc1ccc(Nc2ncc3ncc(=O)n(-c4ccc(NC(=O)/C=C/CN(C)C)cc4)c3n2)cc1` [Compound 009, 4-(dimethylamino)-N-(4-(2-(4-methoxyphenylamino)-7-oxo-8(7H)-pteridin-yl)phenyl)-2-buteneamide], the IC50 amounted to 152 nM at FLT3; 1.15 µM in experiment [1]; 0.84 µM in experiment [2]; 2.41 µM in the experiment with MCF-7; 2.24 µM in [3]; 5310 nM on BLK. The IC50 on EGFR-T790M turned out to be 10.9 nM; in experiment [4], 0.91 µM; in experiment [5], 4.65 µM; at EGFR-L858R/T790M, 39.1 nM; at wild-type EGFR, 60.7 nM; at EGFR-L858R it was 81.1 nM.

As to `C=CC(=O)Nc1ccc(-n2c(=O)cnc3cnc(Nc4ccc(OC)cc4)nc32)cc1` [Compound 002, N-(4-(2-(4-methoxyphenylamino)-7-oxo-8(7H)-pteridin-yl)phenyl)acrylamide], the IC50 was 128 nM at FLT3; 1.57 µM in [1]; more than 10 µM in experiment [2]; 1.51 µM with MCF-7; 1.23 µM in [3]; 3040 nM at BLK. Besides, the IC50 is 665 nM at EGFR-T790M; 1.29 µM in [4]; 2.75 µM in experiment [5]; 606 nM at EGFR-L858R/T790M; 446 nM on wild-type EGFR; 546 nM on EGFR-L858R.

Turning to `COc1ccc(Nc2ncc3ncc(=O)n(-c4cccc(N)c4)c3n2)cc1` [Compound 005], the IC50 is 30 nM at FLT3; more than 10 µM in [1]; more than 10 µM in [2]; more than 10 µM in the experiment with MCF-7; more than 10 µM in [3]; more than 10000 nM at BLK. Besides, the IC50 at EGFR-T790M was more than 10000 nM; in experiment [4], more than 10 µM; in experiment [5] it was more than 10 µM; at EGFR-L858R/T790M, more than 10000 nM; at wild-type EGFR it was more than 10000 nM; on EGFR-L858R it was 87200 nM.
